Values of other authors as cited in patent US8877755B2, “Dopamine-agonist combination therapy for improving sleep quality” (priority 2004, dated 2014).
Where a name gives a salt, the structure may show the parent alone. Read-outs that look alike come from different tables or passages of the source.

Key:
[1] = in vivo
[2] = in vivo; remark: listed apart in the source
[3] = following oral administration
[4] = mice; behavioral depression score <40
[5] = L-dopa 100 mg with carbidopa 10 mg, in most cases
[6] = in vivo; remark: listed apart in the source
[7] = system: L-glutamate 1-carboxylase; conditions: at 10^−3 M
[8] = molecular target: GABA:2-oxo-glutarate aminotransferase (Homo sapiens, UniProt P80404); conditions: at 10^−3 M
GABA uptake system = system: GABA uptake system; set-up: dose or concentration left out as unconfirmed
[9] = not given; remark: listed apart in the source
[10] = not given; remark: listed apart in the source
[11] = not given; remark: listed apart in the source
[12] = primates, multiple doses for up to four days

GABA:2-oxo-glutarate aminotransferase, sequence (P80404 29-500): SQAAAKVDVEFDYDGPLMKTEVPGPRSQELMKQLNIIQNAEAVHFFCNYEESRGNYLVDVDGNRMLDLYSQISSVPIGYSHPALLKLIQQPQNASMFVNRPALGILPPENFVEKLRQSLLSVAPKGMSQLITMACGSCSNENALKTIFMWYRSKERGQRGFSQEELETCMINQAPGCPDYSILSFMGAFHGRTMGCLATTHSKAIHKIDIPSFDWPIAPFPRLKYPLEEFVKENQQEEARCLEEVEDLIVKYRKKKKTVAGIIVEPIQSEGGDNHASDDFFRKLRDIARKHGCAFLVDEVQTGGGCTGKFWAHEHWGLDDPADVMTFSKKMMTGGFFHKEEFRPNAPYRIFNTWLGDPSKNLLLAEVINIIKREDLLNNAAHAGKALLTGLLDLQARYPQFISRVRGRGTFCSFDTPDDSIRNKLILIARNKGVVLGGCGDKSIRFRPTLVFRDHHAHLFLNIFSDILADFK

SMILES: Cc1ccc(-c2nc3ccc(C)cn3c2CC(=O)N(C)C)cc1 [zolpidem, N,N,6-trimethyl-2-(4-methylphenyl)-imidazo[1,2-s]pyridine-3-acetamide]
- elimination half-life (mean) [1]: 2.4 h

SMILES: C=CCN1C[C@H](C(=O)N(CCCN(C)C)C(=O)NCC)C[C@@H]2c3cccc4[nH]cc(c34)C[C@H]21 [Cabergoline, 1-[(6-allylergolin-8β-yl)-carbonyl]-1-[3-(dimethylamino)propyl]-3-ethylurea]
- half life [2]: ≤ 65 h

SMILES: CCN(C(C)=O)c1cccc(-c2ccnc3c(C#N)cnn23)c1 [Zaleplon, N-[3-(3-cyanopyrazolo[1,5-a]pyrimidin-7-yl)phenyl]-N-ethylacetamide]
- time to peak plasma concentration [3]: 1 h

SMILES: O=C(CCCN1CCC(O)(c2ccc(Cl)cc2)CC1)c1ccc(F)cc1 [haloperidol]
- ED100 [4]: 10 mg/kg

SMILES: CN1C(=O)CN=C(c2ccccc2)c2cc(Cl)ccc21 [diazepam]
- ED100 [4]: 50 mg/kg

SMILES: N[C@@H](Cc1ccc(O)c(O)c1)C(=O)O [L-dopa]
- effect on RLS [5]: completely suppresses RLS

SMILES: CCCC(C)(COC(N)=O)COC(N)=O [meprobamate]
- ED100 [4]: 300 mg/kg

SMILES: Oc1ccc(C2CNCCc3c2cc(O)c(O)c3Cl)cc1 (racemic) [racemic fenoldopam, 6-chloro-2,3,4,5-tetrahydro-1-(4-hydroxyphenyl)-1H-3-benzazepine-7,8-diol]
- average clearance (CL) [6]: 2.6 L/min
- half-life (t1/2) [6]: 4.6 min

SMILES: CN1CCc2cccc3c2[C@H]1Cc1ccc(O)c(O)c1-3 [apomorphine, (R)-5,6,6a,7-tetrahydro-6-methyl-4H-dibenzo-[de,g]quinoline-10,11-diol]
- tolerated dose, continuous infusion (continuous infusion for 14 days): 420 µg/kg/h
- minimally lethal dose, continuous infusion (over the course of the 14 day study): 1,500 μg/kg/hr

SMILES: CCC1(c2ccccc2)CCC(=O)NC1=O (centres unmarked) [glutethimide]
- ED100 [4]: 300 mg/kg

SMILES: COC(=O)[C@H]1[C@H]2C[C@@H]3c4[nH]c5cc(OC)ccc5c4CCN3C[C@H]2C[C@@H](OC(=O)c2cc(OC)c(OC)c(OC)c2)[C@@H]1OC [reserpine]
- ED100 [4]: 50 mg/kg

SMILES: CCCC(C)C1(CC)C(=O)NC(=O)NC1=O (centres unmarked) [pentobarbital]
- ED100 [4]: 100 mg/kg

SMILES: Oc1noc2c1CCNC2 [gaboxadol, 4,5,6,7-tetrahydroisoxazolo[5,4-c]pyridin-3-ol]
- interaction with L-glutamate 1-carboxylase [7]: did not interact
- interaction with GABA:2-oxo-glutarate aminotransferase [8]: did not interact
- interaction with GABA uptake system (GABA uptake system): did not interact

SMILES: CC(=O)N(C)c1cccc(-c2ccnc3c(C(=O)c4cccs4)cnn23)c1 [Indiplon, N-methyl-N-(3-{3-[2-thienylcarbonyl]-pyrazolo-[1,5-a]-pyrimidin-7-yl}-phenyl)acetamide]
- resulting pH of water solution ([9]; at 20-30 μg/ml in water): approximately 8.0
- half-life in vivo [10]: approximately 1.3 hours

SMILES: CN1C[C@@H](NS(=O)(=O)N(C)C)C[C@@H]2c3cccc4c3c(cn4C)C[C@H]21 [mesulergine, N′-(1,6-dimethylergolin-8α-yl)-N,N-dimethylsulfamide]
- solubility in water ([9]; hydrochloride salt): soluble in water
- half-life in vivo [11]: approximately 2 hr

SMILES: CN1CCc2cccc3c2[C@H]1Cc1ccc(O)c(O)c1-3 [apomorphine HCl]
- doses without major adverse effects [12]: 0.1 to 0.4 mg/kg
- tolerated dose (single bolus subcutaneous injection, mammals): up to 13 mg/kg
